“Also recorded” adds a separate entry of the source.
Legend:
[1] = system: factor Xa; assay: UNIVERSE PK/PD: anti-Factor Xa activity vs plasma rivaroxaban concentration; format: in vivo, pediatric patients
Experimental: (§1) PT and aPTT were determined using an electromagnetic mechanical clot detection method at ARUP laboratory (Salt Lake City, Utah, USA). The PT assay was performed according to the manufacturers' instructions on the STA Compact Hemostasis Workstation (STA Compact coagulation analyzer) using one PT reagent (STA-Neoplastine CI Plus, Diagnostica Stago, Inc), with an International Sensitivity Index (ISI) of around 1.3. The primary read-out for PT was in seconds, as the International Normalization Ratio (INR) which allows for comparison of PT values regardless of the reagents and instruments used for its determination, is only calibrated and validated for VKA and cannot be used for any other anticoagulant without validation. The PT reportable range is between 10 and 120 seconds. […] The read-out for aPTT is in seconds with a reportable range between 5 and 180 seconds. Anti-Factor Xa activity was determined at Eurofins Biomnis (France). Anti-Factor Xa activity was measured using a one-step reaction based on the inhibitory effect of rivaroxaban against factor Xa's activity of generating thrombin from prothrombin after adding rivaroxaban into the plasma-substrate mixture using the STA-COMPACT MAX2® system (Diagnostica Stago, Asnieres-sur-Seine, France). […] The calibration range of the assay is 35 to 500 ng/mL, and the lower limit of quantification (LLOQ) is 35 ng rivaroxaban/mL. […]

[2] = system: prothrombin time (PT), activated partial thromboplastin time (aPTT); assay: UNIVERSE PK/PD: PT and aPTT vs plasma rivaroxaban concentration; format: in vivo, pediatric patients; conditions: UNIVERSE vs adult studies ODIXa-HIP2 and ODIXa-KNEE
Experimental: as §1

[3] = UNIVERSE primary efficacy outcome: any thrombotic event (CIAC adjudicated); format: in vivo, pediatric patients; conditions: full analysis set
From the text: This study was a prospective, open-label, active-controlled, multicenter study designed to evaluate the PK and PK/PD profiles, safety, and efficacy of rivaroxaban for thromboprophylaxis in pediatric patients 2 to 8 years of age with single ventricle physiology who have completed the Fontan procedure within 4 months prior to enrollment. The trial was approved by the institutional review board of each participating institution, as well as the appropriate national ethics committee. Written informed consent for trial participation was obtained from the parent or guardian of each patient. An Independent Data Monitoring Committee (IDMC) ensured patients' safety throughout the trial. A Central Independent Adjudication Committee (CIAC) reviewed all efficacy and safety events.
Part B was the randomized, open-label, active-controlled part of the study that evaluated the safety and efficacy of twice daily administration of rivaroxaban compared to ASA (usual standard of care) for thromboprophylaxis for 12 months. Patients randomized to rivaroxaban also had PK and PD assessments.
Primary efficacy outcome: Any thrombotic event, venous or arterial, symptomatic or asymptomatic defined as: • The appearance of a new thrombus within the cardiovascular system on either routine surveillance or clinically indicated imaging, or • The occurrence of a clinical event known to be strongly associated with thrombus (e.g., stroke, pulmonary embolism).
All efficacy outcomes were adjudicated by the CIAC, blinded to assigned treatment.

[4] = human, in vivo
From the text: The methods and products of the invention concern dosages that are clinically proven safe and/or effective. Adverse events that impact whether the inventive dose, dosing regimen, treatment or method with rivaroxaban of the present invention are safe are adverse bleeding events that include, for example, major bleeding. “Major bleeding” as used herein is defined in accordance with ISTH criteria as clinically overt bleeding associated with a decrease in hemoglobin of […], a transfusion of the equivalent of […] of packed red blood cells or whole blood, or bleeding at a critical site, or with fatal outcome. Other adverse events include clinically relevant non-major bleeding and trivial (minimal) bleeding.
The primary safety outcome was ISTH defined major bleeding. Major bleeding was defined as overt bleeding and: […]
1) Associated with a fall in hemoglobin of 2 g/dL or more; or 2) Leading to a transfusion of the equivalent of 2 or more units of packed red blood cells or whole blood in adults; or 3) Occurring in a critical site: intracranial, intraspinal, intraocular, pericardial, intraarticular, intramuscular with compartment syndrome, retroperitoneal; or 4) Contributing to death.
The secondary safety outcomes were: Clinically relevant non-major bleeding and trivial (minimal) bleeding events.

[5] = 10 mg QD, N=140, cited from earlier work
[6] = clinical; conditions: human, plasma, oral
Experimental: Rivaroxaban was administered twice daily (BID) in an open-label fashion as a 0.1% (1 mg/mL) oral suspension based on weight as shown in Table 2 (not related to prandial state).
Blood samples were collected for PK (i.e., plasma rivaroxaban concentrations) and full PD (prothrombin time [PT], activated partial thromboplastin time [aPTT], and anti-factor Xa activity) assessments on the first day of dosing between 0.5 to 1.5 hours and again between 1.5 to 4.0 hours postdose. Additional samples were collected on Day 4, just prior to rivaroxaban administration (PK, PT, aPTT) and again between 0.5 to 1.5 hours (PK, PT, aPTT), 1.5 to 4.0 hours (PK, PT, aPTT), and 6.0 to 8.0 hours (PK and full PD) postdose. At Month 3, samples were collected just prior to rivaroxaban dosing (PK and full PD) and at 0.5 to 1.5 hours postdose (PK, PT, aPTT) and 2.5 to 4 hours postdose (PK, PT, aPTT). An additional random sample (PK, PT, and aPTT) was collected at Month 12.
In Part B, blood samples were collected for assessment of PT and aPTT before the first dosing; PK and full PD samples were collected between 0.5 to 1.5 hours and again between 1.5 to 4.0 hours after the first dose. At Month 3, PK and full PD samples were collected just prior to rivaroxaban administration and again between 0.5 to 1.5 hours, and 2.5 to 4.0 hours postdose. An additional random sample (PK, PT, and aPTT) was collected at Month 12.
Blood samples for PK or PD assays were centrifuged, and the resulting plasma samples were frozen and stored below −15° C. until analyzed. Rivaroxaban plasma concentrations were determined using the validated liquid chromatography/mass spectrometry/mass spectrometry (LC-MS/MS) method with a lower limit of quantitation (LLOQ) of 0.5 μg/L. The pharmacodynamic effects of rivaroxaban were assessed by evaluation of prothrombin time (PT), activated partial thromboplastin time (aPTT), and anti-Factor Xa activity (AXA).
Patients in Part A received their first dose of rivaroxaban oral suspension on Day 1 (on site) and then continued taking rivaroxaban twice daily for 12 days (+9 days) to achieve steady state. PK and PD samples were collected on Day 1 and Day 4 (+2 days) of rivaroxaban administration (Table 3).
Part A, individual empirical Bayesian post-hoc PK parameters were derived using the existing population PK model from the Einstein Jr program (with the NONMEM option: $ESTIMATION MAXEVAL=0).
The population PK model used for the rivaroxaban PK profile evaluation was based on the Einstein Jr program. The pharmacokinetics of rivaroxaban were described by a linear two-compartment model with first-order oral absorption and first-order elimination from the central compartment with the absorption rate constant (KA), apparent clearance of the central compartment (CL/F), apparent central volume of distribution (Vc/F), apparent peripheral volume of distribution (Vp/F), and transport rate between the central and peripheral compartments (CI) as structural model parameters. CL/F, Q/F, Vp/F, and Vc/F were fig. allometrically scaled with body weight. Inter-individual variability (IIV) was identified for KA and CL/F. Residual error was described by a proportional error model.

[7] = Part A N=12, up to end of treatment
[8] = Part B rivaroxaban N=64, aspirin N=34, up to end of treatment
[9] = rivaroxaban Part A+B total N=76, up to end of treatment

## O=C(NC[C@H]1CN(c2ccc(N3CCOCC3=O)cc2)C(=O)O1)c1ccc(Cl)s1 [Rivaroxaban, 5-chloro-N-({(5S)-2-oxo-3-[4-(3-oxo-4-morpholinyl)phenyl]-1,3,oxazolidin-5-yl}methyl)-2-thiophenecarboxamide]
[1]; UNIVERSE Part A
  Correlation (r) of anti-factor Xa with rivaroxaban plasma concentrations: 0.932
[1]; UNIVERSE study
  R-squared of anti-factor Xa activity vs plasma rivaroxaban concentrations: 0.901
[2]
  PT vs rivaroxaban concentration compared with adult reference: within the 99% prediction range observed in the adult reference studies
  aPTT vs rivaroxaban concentration compared with adult reference: within the 99% prediction range observed in the adult reference studies; also recorded: less steep in comparison to adult reference
[3]; [7]
  Ischemic stroke, subjects n (%): 0
  Other thrombosis, subjects n (%): 0
[3]; [8]
  All-cause mortality, No. of subjects with event: 0
  Any thrombotic event (primary efficacy outcome), % of subjects: (1.6%)
  Arterial/intracardiac thrombosis, subjects n (%): 0
  Ischemic stroke, subjects n (%): 0
  Other thrombosis, subjects n (%): 0
  Pulmonary embolism, % of subjects: (1.6%)
  Venous thromboembolism, % of subjects: (1.6%)
  Venous thromboembolism, No. of subjects with event: 1/64
  Venous thrombosis, subjects n (%): 0
[3]; rivaroxaban Part A+B total N=76
  Any thrombotic event (primary efficacy outcome), % of subjects: 3%
[3]; [9]
  Arterial/intracardiac thrombosis, subjects n (%): 0
  Ischemic stroke, subjects n (%): 0
  Other thrombosis, subjects n (%): 0
[4]
  CRNM bleeding: Hematoma, subjects n (%): 0
  CRNM bleeding: Subconjunctival, subjects n (%): 0
  Clinically relevant non-major (CRNM) bleeding, % of subjects: (6.3%)
  Clinically relevant non-major (CRNM) bleeding, No. of subjects with event: 4/64
  Clinically relevant non-major bleeding, subjects n (%): 5
  Fall in hemoglobin ≥2 g/dL or transfusion of the equivalent ≥2 units of packed red blood cell or whole blood in adults, No. of subjects with event: 1/64
  Fall in hemoglobin ≥2 g/dL or transfusion of the equivalent ≥2 units, % of subjects: (1.6%)
  Fatal or critical site bleeding, No. of subjects with event: 0
  Major and clinically relevant non-major bleeding, % of subjects: (7.8%)
  Major and clinically relevant non-major bleeding, No. of subjects with event: 5/64
  Major bleeding (ISTH), % of subjects: (1.3%)
  Major bleeding (ISTH), subjects n (%): 1
  Major bleeding (primary safety outcome), % of subjects: (1.6%)
  Major bleeding (primary safety outcome), No. of subjects with event: 1/64
  Trivial (minimal) bleeding, % of subjects: (32.8%)
  Trivial (minimal) bleeding, No. of subjects with event: 21/64
  Trivial bleeding, subjects n (%): 24
  Trivial bleeding: GI-Lower, subjects n (%): 0
[5]; Adult reference ODIXa-HIP-OD
  AUC24h,ss geometric mean (90% CI): 1494 ng·h/mL
[5]; Adult reference
  AUC24h,ss median (range): 1452 ng·h/mL
  Cmax,ss geometric mean (90% CI): 125.8 ng/mL
  Cmax,ss median (range): 127.6 ng/mL
  Ctrough,ss geometric mean (90% CI): 13.9 ng/mL
  Ctrough,ss median (range): 14.3 ng/mL
[6]
  AUC(0-t): 1480 ng·h/mL
  Cmax: 124 ng/mL

Source: patent US20220193085A1, “METHODS OF THROMBOPROPHYLAXIS” (JANSSEN PHARMACEUTICALS, INC., priority 2020, published 2022)
